Assay results taken from patent US11723362B2, “Broad-spectrum synergistic antimicrobial compositions” (The United States of America, as represented by the …, priority 2019, dated 2023).

What was measured:
[1] = test system: Pseudomonas aeruginosa ATCC 9027; assay: Bactericidal activity in ionic surfactant hand wash / foamy hand soap base formula (HW); format: cell-based; conditions: pH 7.0
Procedure: This example illustrates the preparation of testing parameters for antimicrobial activity of components of the inventive composition and related compositions for comparison. […] Mold were grown and minimum inhibitory tests performed as previously reported (see e.g., Buckley, H. L. et al. ACS Sustain. Chem. Eng. 5, 4320-4331, 2017). Microbes were grown on Mueller-Hinton agar (MHA, Sigma-Aldrich, St. Louis, Mo.) for 7 days until heavy sporulation was present. Spores from two agar plates were captured in sterile phosphate-buffered saline (PBS) using a sterile swab. Spores were enumerated by serial dilution in Dey-Engley neutralizing broth (DEB; Sigma-Aldrich) and spread plating on MHA. A typical spore stock was determined to contain ˜2×10^7 spores/mL. Bacteria were grown in MH broth for 24 h at 37° C., enumerated by plating, and diluted to the desired concentration as indicated.
To test the various compounds, a foamy hand soap base formula was made with sodium lauryl sulfate (SLS, 2.4% w/w; Sulfochem SLS-PHP [30% active], The Lubrizol Corporation, Wickliffe, Ohio) and cocoamidopropyl betaine (CAPB, 1.2% w/w; Mackam 35 [30% active], Solvay S.A, Brussels, Belgium) in deionized water and sterilized by filtration (0.22 μm, PVDF; VWR, Radnor, Pa.). All test formulas were adjusted to the desired pH using citric acid and/or NaOH. All tubes were inoculated with 250 μL of spore inoculum (described above) to a total volume of 5 mL, for a final spore concentration of ˜1×10^6 spores/mL in each tube. […] About 100 μL of each inoculated foamy hand soap mixture was diluted 1:10 in DEB and 100 μL of this dilution was spread plated on MHA at several time points (e.g. 3 d, 7 d, 13 d, 18 d, and 20 d). Plates were incubated at room temperature for 3-5 days for mold (1-2 days for bacteria) and colonies enumerated.

[2] = test system: Aspergillus brasiliensis ATCC 16404; assay: Fungicidal activity in ionic surfactant hand wash / foamy hand soap base formula (HW); format: cell-based; conditions: pH 7.0
Procedure: (§1) This example illustrates the preparation of testing parameters for antimicrobial activity of components of the inventive composition and related compositions for comparison. […] Microbes were grown on Mueller-Hinton agar (MHA, Sigma-Aldrich, St. Louis, Mo.) for 7 days until heavy sporulation was present. Spores from two agar plates were captured in sterile phosphate-buffered saline (PBS) using a sterile swab. Spores were enumerated by serial dilution in Dey-Engley neutralizing broth (DEB; Sigma-Aldrich) and spread plating on MHA. A typical spore stock was determined to contain ˜2×10^7 spores/mL. Bacteria were grown in MH broth for 24 h at 37° C., enumerated by plating, and diluted to the desired concentration as indicated.
All test formulas were adjusted to the desired pH using citric acid and/or NaOH. […] All tubes were kept at room temperature (˜21-22° C.) for 3 weeks. About 100 μL of each inoculated foamy hand soap mixture was diluted 1:10 in DEB and 100 μL of this dilution was spread plated on MHA at several time points (e.g. 3 d, 7 d, 13 d, 18 d, and 20 d). Plates were incubated at room temperature for 3-5 days for mold (1-2 days for bacteria) and colonies enumerated.
The preservative activity of a hydroxamic acid/guanylhydrazone combination was compared to other antimicrobial mixtures in an ionic surfactant-containing formula. […] The fungicidal properties of a mixture of benzhydroxamic acid and guanylhydrazone (1+7) was compared to commercial antimicrobials representing different functional classes (Table 3).

[3] = test system: A. brasiliensis; assay: Minimum inhibitory concentration (MIC) in Mueller-Hinton broth, pH 7.4; format: cell-based, Aspergillus brasiliensis; conditions: Table 2
Procedure: as §1
(§2) To assess the antimicrobial activity of hydroxamic acids and derivatives, the inhibitory properties of commercially available hydroxylamines and hydroxamic acids were compared to their alcohol and carboxylic acid analogues diluted in Mueller-Hinton broth at pH 7.4 (Table 1).

[4] = Dissolution / compatibility in water (observation); format: physicochemical; conditions: sample preparation for extended preservative test
Procedure: Several aryl derivatives of benzhydroxamic acid were also tested.

[5] = test system: Aspergillus brasiliensis ATCC 16404; assay: Effect of pH on antifungal properties of HW formula under high fungal load; format: cell-based; conditions: HW with 0.4% 7 alone; 10^7 CFU/mL; pH 5.5-9.5
Excerpt: FIG. 1 illustrates the fungicidal properties of a handwash formula containing the inventive composition as further explained in the examples below. The Y axis presents the log reduction of cell forming units per mL (CFU/mL). The X axis presents the pH of the different formulas. Data for benzaldehyde guanylhydrazone 7+CHA is shown with black lines (BGH+CHA); data for benzaldehyde guanylhydrazone 7 (BGH) is shown with dotted lines; data for CHA alone is shown with grey lines.
(§3) This example illustrates the surprising synergistic antimicrobial activity of the inventive composition and related compositions for comparison tested on two of the most persistent microorganisms tested in the USP 51 protocol: A. brasiliensis (ATCC No. 16404) and P. aeruginosa (ATCC NO. 9027). The effect of pH on antifungal properties of a HW formula containing 0.4% 7 and 0.5% CHA, alone and in combination, was then evaluated under a high fungal load (10^7 CFU/mL). […] Without intending to be bound by theory, it was suspected that the poor performance of the combination at neutral pH results from the milder conditions of this formula, which is more encouraging to mold growth.

[6] = test system: A. brasiliensis 16404; assay: USP-51 preservative challenge test of anionic, amphoteric surfactant-containing hand wash; format: cell-based, Aspergillus brasiliensis; conditions: HW pH 6; formulas: 0.4% 7; 0.5% CHA; 0.2% 7 + 0.5% CHA
Procedure: (§4) Preservative challenge testing (USP-51).
as §3

[7] = test system: P. aeruginosa; assay: Minimum inhibitory concentration (MIC) in Mueller-Hinton broth, pH 7.4; format: cell-based, Pseudomonas aeruginosa; conditions: Table 2, ATCC 9027
Procedure: as §1, §2
Guanylhydrazones 7 and 8, which represent a class of broad-spectrum antimicrobials, alone and in combination with hydroxamic acids were evaluated.

[8] = test system: P. aeruginosa ATCC 15442; assay: AOAC Use Dilution test; format: cell-based, Pseudomonas aeruginosa; conditions: 60 carriers tested, ten minutes contact time
Procedure: (§5) MICROCHEM Laboratories completed the AOAC Use dilution, semi-quantitative test method against the 3 strains of bacteria using the maximum contact time of ten minutes with three replicates from the same sample submission. For the S. aureus testing, MICROCHEM Laboratories followed ASTM E2315 method with a 10 minute exposure but only a single replicate was tested. The ASTM E2315 quantitative test method was used by MICROCHEM Laboratories to access the performance of a single replicate of the test compounds against the MS2 virus using a 10 minute contact time.
(§6) The killing efficacy of Cuminaldehyde Guanylhydrazone (CG) in water against three bacteria was evaluated using the AOAC Use Dilution test. While a passing kill rate against Pseudomonas aeruginosa, and a close to, but just below the target kill rate, for Salmonella enterica were detected, a kill rate against Staphylococcus aureus was not achieved. The test results were the same for both concentrations tested (0.2 wt. % and 0.5 wt. %).

[9] = Stability of CG in commercial household products; format: physicochemical; conditions: nonionic spray cleaners, polishes, hand soap, liquid dish soap; refrigerator (2.8° C.), room temperature (21.1° C.), oven (40° C.), 3 freeze-thaw cycles
Procedure: Freeze-thaw studies were conducted using a commercial refrigerator freezer and were completed over a two week period where the samples were frozen, thawed and observed for 3 cycles. Additional samples were stored in 15 mL Falcon tubes in the refrigerator, at room temperature and in a 40° C. oven. These samples were removed and evaluated at three time points in conjunction with the freeze-thaw samples. The compositions of the household products in which CG was stable are listed below in tables 13 and 14. The “Surfactant Control” was composed as follows: 4% 1,3-propanediol, 4% alkyl polyglucoside (C8-C16), 2% ethoxylated fatty alcohol (Clariant Genapol LA 070), 90% deionized water. Cuminaldehyde Guanylhydrazone (CG) was added to several different commercial products. Stability testing was performed in refrigerator (2.8° C.), at room temperature (21.1° C.), in an oven (40° C.), and through 3 freeze-thaw cycles. It was determined that CG was stable in at least 4 different classes of household products including nonionic spray cleaners, polishes, hand soap, and liquid dish soap. […] Not intending to be theory-bound, these instabilities may be attributed mainly to carbonate, anionic surfactants, or high pH.

[10] = test system: mold; assay: USP <51> preservative efficacy in nonionic spray cleaner base (mold); format: cell-based, A. brasiliensis; conditions: alone, 0.1% in spray cleaner base
Excerpt: as §4

[11] = test system: S. aureus ATCC 6538; assay: AOAC Use Dilution test; format: cell-based, Staphylococcus aureus; conditions: 60 carriers tested, ten minutes contact time
Procedure: as §5, §6

[12] = test system: S. enterica ATCC 10708; assay: AOAC Use Dilution test; format: cell-based, Salmonella enterica; conditions: 60 carriers tested, ten minutes contact time
Procedure: as §5, §6

[13] = test system: E. coli, S. aureus, P. aeruginosa, A. brasiliensis, B. cepacia, and C. albicans; conditions: 0.2% in nonionic spray cleaner base lacking additional preservatives; 28 days
Excerpt: Preservative challenge testing (USP-51). The protocol for the preservative challenge testing followed the US Pharmacopeia Chapter 51 (USP 51). Under the USP 51 protocol, the test organisms are Candida albicans (ATCC No. 10231), Aspergillus brasiliensis (also referred to as A. niger) (ATCC No. 16404), Escherichia coli (ATCC No. 8739), Pseudomonas aeruginosa (ATCC No. 9027), and Staphylococcus aureus (ATCC No. 6538). To access the potency of a preservative in a personal care product formula, microorganisms were added separately to a sample of the product formula, such that their final concentrations were between 1.00E+05 and 1.00E+06 CFU (colony forming units)/mL of product. The inoculated personal care product formulas were incubated at specific temperatures (relative to the organism) and plated over the course of two weeks. During plating, the number of colony-forming units (CFU's) were counted to determine the number of viable microbial cells still present in the solution. Antimicrobial effectiveness is determined by logarithmic reductions in growth over time.
The effect of CG on mold, bacteria, and yeast were tested following the USP <51> procedure. […] For the instant examples, the criteria for passing the USP 51 preservative efficacy protocol against bacteria is a reduction of not less than 2-log 10 from the initial count at 14 days, and no increase from the 14 day count at 28 days. […]

[14] = hand soap formula, 0.2 wt % 8 alone
[15] = hand soap formula, 0.3 wt % 8 alone, minimum detection limit 5.0 × 10^1
[16] = HW, substance alone 0.1%, 1 × 10^6 CFU/ml, 37° C.

CCCCCCCCc1ccc(C=NNC(=N)N)cc1 [4-n-octylbenzaldehyde guanylhydrazone 8, 4-n-octylbenzaldehyde guanylhydrazone]
CFU/mL after 7 d contact time [1, 14]: >2 × 10^4 CFU/mL | CFU/mL after 7 d contact time [2, 14]: >2 × 10^4 CFU/mL | CFU/mL, incubation time 3 d [2, 15]: >2.5 × 10^4 CFU/mL | CFU/mL, incubation time 7 d [2, 15]: >2.5 × 10^4 CFU/mL | CFU/mL, incubation time 13 d [2, 15]: >2.5 × 10^4 CFU/mL | CFU/mL, incubation time 18 d [2, 15]: >2.5 × 10^4 CFU/mL | CFU/mL, incubation time 20 d [2, 15]: >2.5 × 10^4 CFU/mL | Minimum inhibitory concentration [3]: 0.002 | compatibility in water [4]: not compatible in water

N=C(N)NN=Cc1ccccc1 [Benzaldehyde guanylhydrazone 7, Benzaldehyde guanylhydrazone]
antifungal performance over the pH range [5]: poor performance, except at high pH | Log10 Reduction, Day 6 [6]: 0.35 Log10 | Day 3 Log Reduction [1, 16]: 4 Log | Day 10 Log Reduction [1, 16]: 4 Log | Minimum inhibitory concentration [7]: 0.06 | Log reduction Week 2 ([2]; HW, 0.4 wt %, 1 × 10^6 CFU/mL, 25° C.): none

CC(C)c1ccc(/C=N/NC(=N)N)cc1 [CG, (2E)-2-{[4-(propan-2-yl)phenyl]methylidene} hydrazine-1-carboximidamidium]
Confirmed Positive carriers ([8]; CG 0.2 wt. % in water): 2 | Result ([8]; CG 0.2 wt. % in water): Pass (6) | Confirmed Positive carriers ([8]; CG 0.5 wt. % in water): 2 | Result ([8]; CG 0.5 wt. % in water): Pass (6) | stability in household products [9]: stable | log reduction of mold (not eliminated to nondetectable levels) [10]: < 4 log | Confirmed Positive carriers ([11]; CG 0.2 wt. % in water): 12 | Result ([11]; CG 0.2 wt. % in water): Fail (3) | Confirmed Positive carriers ([11]; CG 0.5 wt. % in water): 12 | Result ([11]; CG 0.5 wt. % in water): Fail (3) | Confirmed Positive carriers ([12]; CG 0.2 wt. % in water): 2 | Result ([12]; CG 0.2 wt. % in water): Fail (2) | Confirmed Positive carriers ([12]; CG 0.5 wt. % in water): 2 | Result ([12]; CG 0.5 wt. % in water): Fail (2) | USP 51 preservative efficacy protocol result against bacteria, yeast, and mold [13]: passed
